Reference: patent publication US20260124222A1, “ISOTHIAZOLYLCARBOXAMIDE COMPOUNDS AND THEIR USE IN THERAPY” (HOTSPOT THERAPEUTICS, INC., priority 2022, published 2026)

Molecular target: T1, Avi-tagged FL MALT-1 (Homo sapiens, UniProt Q9UDY8)
T1 construct: Avi-tagged FL MALT-1 (Pharmaron, stored at −70° C.); Avi-tag; purchased Pharmaron
T1 sequence (Q9UDY8 1-824): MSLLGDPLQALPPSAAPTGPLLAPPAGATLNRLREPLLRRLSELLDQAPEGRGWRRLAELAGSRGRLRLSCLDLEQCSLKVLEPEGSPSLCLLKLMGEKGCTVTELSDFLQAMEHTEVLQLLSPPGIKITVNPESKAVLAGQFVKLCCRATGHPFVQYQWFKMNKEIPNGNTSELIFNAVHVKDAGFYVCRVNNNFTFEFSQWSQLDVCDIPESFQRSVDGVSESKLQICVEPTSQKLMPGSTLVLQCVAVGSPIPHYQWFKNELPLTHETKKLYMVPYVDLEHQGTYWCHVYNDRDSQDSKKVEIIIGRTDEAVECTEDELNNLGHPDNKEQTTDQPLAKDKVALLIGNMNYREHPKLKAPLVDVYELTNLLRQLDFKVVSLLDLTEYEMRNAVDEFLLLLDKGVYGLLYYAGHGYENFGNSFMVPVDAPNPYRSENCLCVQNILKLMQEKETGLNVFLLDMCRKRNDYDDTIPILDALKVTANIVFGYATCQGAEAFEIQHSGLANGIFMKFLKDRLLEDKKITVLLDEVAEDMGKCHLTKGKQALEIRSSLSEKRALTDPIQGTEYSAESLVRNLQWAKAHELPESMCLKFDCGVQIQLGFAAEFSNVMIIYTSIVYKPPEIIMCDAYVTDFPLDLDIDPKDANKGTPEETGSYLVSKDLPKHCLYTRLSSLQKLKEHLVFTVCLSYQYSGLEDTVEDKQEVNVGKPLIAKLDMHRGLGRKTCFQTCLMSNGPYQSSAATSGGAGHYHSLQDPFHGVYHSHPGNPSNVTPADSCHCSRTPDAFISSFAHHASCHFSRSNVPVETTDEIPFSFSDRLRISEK
Experiment: MALT-1 Fluorogenic Peptide Cleavage Assay (MALT1 inhibition assay)
Format: biochemical
Settings: Ac-LRSR-AMC peptide substrate; 30 min pre-incubation, 90 min reaction at room temperature; fluorescence
Method: Inhibition of MALT1 activity by a small molecule was evaluated using MALT-1 Fluorogenic Peptide Cleavage Assay. The assay utilizes a quenched AMC-labelled peptide that contains the MALT-1 recognition sequence and cleavage site (LRSR). MALT-1 mediated cleavage of the peptide relieves the quenching and leads to an increase in fluorescence at excitation (342 nm) and emission (441 nm).
The following reagents were obtained commercially and used to prepare standard reagent formulations as further described below: N-2-hydroxyethylpiperazine-N-2-ethane sulfonic acid (HEPES) (1 M, pH 7.5, stored at 4° C.), sodium citrate (stored at RT), tris(2-carboxyethyl)phosphine hydrochloride (T-CEP) (500 mM, stored at −20° C.), ethylenediaminetetraacetic acid (EDTA) (500 mM, stored at RT), dimethylsulfoxide (DMSO, stored at RT), 3-[(3-cholamidopropyl)dimethylammonio]-1-propane sulphate (CHAPS) (stored at RT), dimethylsulfoxide (DMSO), DMSO (Fisher Scientific, stored at RT), Avi-tagged FL MALT-1 (Pharmaron, stored at −70° C.), Ac-LRSR-AMC Peptide (SM Biochemicals, stored at −20° C.), and ultrapure water (MILLI-Q®).
The standard reagent formulations used in this assay were prepared and stored as follows. A 1.1 M solution of sodium citrate (161.3 g, 500 mL) was prepared and stored at room temperature. A 10% (w/v) CHAPS solution (2.0 g, 20 mL) was prepared and stored at 4° C. A 500 mM HEPES solution having pH of 6.89 was prepared from 200 mL of a 1 M HEPES solution having a pH of 7.5 using concentrated hydrochloric acid and brought to a final volume of 400 mL with MILLI-Q© H2O. The substrate, 10 mM Ac-LRSR-AMC Peptide, was prepared (10 mg, 1.370 mL DMSO) and stored at −20° C.
Compounds were plated to provide a 2% DMSO final concentration using a ProxiPlate-384 Plus F Black 384-shallow well microplate. The assay-ready plates were equilibrated to room temperature. A reaction buffer (30 mL total volume) was prepared by combining HEPES (pH 6.89, 25 mM, 1.5 mL), sodium citrate (660 mM, 18.0 mL), T-CEP (1 mM, 0.06 mL), EDTA (0.1 mM, 0.06 mL), CHAPS (0.05%, 0.15 mL), DMSO (2%, 0.6 mL), and MILLI-Q® H2O (10.23 mL; 9.63 mL when backfilled to 2% DMSO) followed by thorough mixing.
MALT-1 was thawed and kept on ice. Peptide substrate was thawed on the bench under ambient conditions. A MALT-1 enzyme working stock was prepared from Avi-tagged FL MALT-1 (40 nM in a prepared reagent volume of […]) and the reaction buffer (13.0 mL). MALT1 working stock (5 μL) was added to each well of the microplate. MALT-1 was pre-incubated with compounds for 30 minutes at room temperature.
Two substrate working stocks (Km and 10×Km) were prepared. The 1×Km substrate was prepared from Ac-LRSR-AMC Peptide (50 μM in a prepared reagent volume of […]) and the reaction buffer (6.965 mL). The 10×Km substrate was prepared from Ac-LRSR-AMC Peptide ([…] in a prepared reagent volume of 196.0 μL) and the reaction buffer (6.804 mL). The reaction was initiated by the addition of substrate working stock (5 μL, 50 μM) to Km plates and the addition of substrate working stock (5 μL 280 μM) to 10×Km plates. The plates were covered and incubated on the bench at room temperature for 90 minutes.
Fluorescence intensity was determined using a CLARIOstar microplate reader (BMG LABTECH) using the optimised AMC mode. Before taking readings, a 70% gain was applied on the neutral control well. Compound data were normalised to % Inhibition and used to plot sigmoidal concentration response curves to yield various parameters including IC50.

Row | IC50 | SMILES
1 | 400 to 1000 nM | N#Cc1c(-c2ccccc2)nsc1C(=O)Nc1cnc(-n2nccn2)c(Cl)c1 [I-4, N-(5-CHLORO-6-(2H-1,2,3-TRIAZOL-2-YL)PYRIDIN-3-YL)-4-CYANO-3-PHENYLISOTHIAZOLE-5-CARBOXAMIDE]
2 | ≤ 400 nM | O=C(Nc1cnc(-n2nccn2)c(Cl)c1)c1snc(-c2ccccc2)c1C(F)(F)F [I-7, N-(5-CHLORO-6-(2H-1,2,3-TRIAZOL-2-YL) PYRIDIN-3-YL)-3-PHENYL-4-(TRIFLUOROMETHYL)ISOTHIAZOLE-5-CARBOXAMIDE]
3 | ≤ 400 nM | N#Cc1cc(NC(=O)c2snc(-c3ccccc3)c2C(F)(F)F)cnc1-n1nccn1 [I-8, N-(5-CYANO-6-(2H-1,2,3-TRIAZOL-2-YL)PYRIDIN-3-YL)-3-PHENYL-4-(TRIFLUOROMETHYL)ISOTHIAZOLE-5-CARBOXAMIDE]
4 | ≤ 400 nM | N#Cc1cc(NC(=O)c2snc(-c3ccccc3)c2C2CC2)cnc1-n1nccn1 [I-9, N-(5-CYANO-6-(2H-1,2,3-TRIAZOL-2-YL) PYRIDIN-3-YL)-4-CYCLOPROPYL-3-PHENYLISOTHIAZOLE-5-CARBOXAMIDE]
5 | ≤ 400 nM | O=C(Nc1cnc(-n2nccn2)c(C(F)(F)F)c1)c1snc(-c2ccccc2)c1C1CC1 [I-14, 4-CYCLOPROPYL-N-(5-(TRIFLUOROMETHYL)-6-(2H-1,2,3-TRIAZOL-2-YL)PYRIDIN-3-YL)-3-PHENYLISOTHIAZOLE-5-CARBOXAMIDE]
6 | ≤ 400 nM | CN(C(=O)c1snc(-c2ccccc2)c1C(F)(F)F)c1cnc(-n2nccn2)c(Cl)c1 [I-18, N-(5-CHLORO-6-(2H-1,2,3-TRIAZOL-2-YL) PYRIDIN-3-YL)-N-METHYL-3-PHENYL-4-(TRIFLUOROMETHYL)ISOTHIAZOLE-5-CARBOXAMIDE]
7 | ≤ 400 nM | N#Cc1cc(NC(=O)c2snc(-c3ncccc3Cl)c2C(F)(F)F)cnc1-n1nccn1 [I-20, 3-(3-CHLOROPYRIDIN-2-YL)-N-(5-CYANO-6-(2H-1,2,3-TRIAZOL-2-YL)PYRIDIN-3-YL)-4-(TRIFLUOROMETHYL)ISOTHIAZOLE-5-CARBOXAMIDE]

Second part, the compound before the results:

Row | SMILES | IC50
8 | O=C(Nc1cnc(-n2nccn2)c(Cl)c1)c1snc(-c2ccccc2)c1I [I-1, N-(5-CHLORO-6-(2H-1,2,3-TRIAZOL-2-YL)PYRIDIN-3-YL)-4-IODO-3-PHENYLISOTHIAZOLE-5-CARBOXAMIDE] | ≤ 400 nM
9 | O=C(Nc1cnc(-n2nccn2)c(Cl)c1)c1cc(-c2ccccc2)ns1 [I-2, N-(5-CHLORO-6-(2H-1,2,3-TRIAZOL-2-YL)PYRIDIN-3-YL)-3-PHENYLISOTHIAZOLE-5-CARBOXAMIDE] | 1000 to 2500 nM
10 | Cc1c(-c2ccccc2)nsc1C(=O)Nc1cnc(-n2nccn2)c(Cl)c1 [I-3, N-(5-CHLORO-6-(2H-1,2,3-TRIAZOL-2-YL)PYRIDIN-3-YL)-4-METHYL-3-PHENYLISOTHIAZOLE-5-CARBOXAMIDE] | ≤ 400 nM
11 | CC(C)c1c(-c2ccccc2)nsc1C(=O)Nc1cnc(-n2nccn2)c(Cl)c1 [I-5, N-(5-CHLORO-6-(2H-1,2,3-TRIAZOL-2-YL) PYRIDIN-3-YL)-4-ISOPROPYL-3-PHENYLISOTHIAZOLE-5-CARBOXAMIDE] | ≤ 400 nM
12 | O=C(Nc1cnc(-n2nccn2)c(Cl)c1)c1snc(-c2ccccc2)c1C1CC1 [I-6, N-(5-CHLORO-6-(2H-1,2,3-TRIAZOL-2-YL) PYRIDIN-3-YL)-4-CYCLOPROPYL-3-PHENYLISOTHIAZOLE-5-CARBOXAMIDE] | ≤ 400 nM
13 | C=Cc1c(-c2ccccc2)nsc1C(=O)Nc1cnc(-n2nccn2)c(Cl)c1 [I-10, N-(5-CHLORO-6-(2H-1,2,3-TRIAZOL-2-YL) PYRIDIN-3-YL)-4-VINYL-3-PHENYLISOTHIAZOLE-5-CARBOXAMIDE] | ≤ 400 nM
14 | CCc1c(-c2ccccc2)nsc1C(=O)Nc1cnc(-n2nccn2)c(Cl)c1 [I-11, N-(5-CHLORO-6-(2H-1,2,3-TRIAZOL-2-YL) PYRIDIN-3-YL)-4-ETHYL-3-PHENYLISOTHIAZOLE-5-CARBOXAMIDE] | ≤ 400 nM
15 | Cc1cc(NC(=O)c2snc(-c3ccccc3)c2C2CC2)cnc1-n1nccn1 [I-12, 4-CYCLOPROPYL-N-(5-METHYL-6-(2H-1,2,3-TRIAZOL-2-YL)PYRIDIN-3-YL)-3-PHENYLISOTHIAZOLE-5-CARBOXAMIDE] | ≤ 400 nM
16 | O=C(Nc1cnc(-n2nccn2)c(C(F)F)c1)c1snc(-c2ccccc2)c1C1CC1 [I-13, 4-CYCLOPROPYL-N-(5-(DIFLUOROMETHYL)-6-(2H-1,2,3-TRIAZOL-2-YL)PYRIDIN-3-YL)-3-PHENYLISOTHIAZOLE-5-CARBOXAMIDE] | ≤ 400 nM
17 | O=C(Nc1ccnc(C(F)(F)F)c1)c1snc(-c2ccccc2)c1C(F)(F)F [I-15, 3-PHENYL-4-(TRIFLUOROMETHYL)-N-(2-(TRIFLUOROMETHYL)PYRIDIN-4-YL)ISOTHIAZOLE-5-CARBOXAMIDE] | ≤ 400 nM
18 | O=C(Nc1ccc(C(=O)N2CC(O)C2)c(Cl)c1)c1snc(-c2ccccc2)c1C(F)(F)F [I-16, N-(3-CHLORO-4-(3-HYDROXYAZETIDINE-1-CARBONYL)PHENYL)-3-PHENYL-4-(TRIFLUOROMETHYL)ISOTHIAZOLE-5-CARBOXAMIDE] | ≤ 400 nM
19 | O=C(Nc1ccc(C(=O)N2CC(O)C2)c(Cl)c1)c1snc(-c2ccccc2)c1C1CC1 [I-17, N-(3-CHLORO-4-(3-HYDROXYAZETIDINE-1-CARBONYL)PHENYL)-3-PHENYL-4—(CYCLOPROPYL)ISOTHIAZOLE-5-CARBOXAMIDE] | ≤ 400 nM
20 | O=C(Nc1cnc(-n2nccn2)c(Cl)c1)c1snc(-c2ncccc2Cl)c1C(F)(F)F [I-19, N-(5-CHLORO-6-(2H-1,2,3-TRIAZOL-2-YL) PYRIDIN-3-YL)-3-(3-CHLOROPYRIDIN-2-YL)-4-(TRIFLUOROMETHYL) ISOTHIAZOLE-5-CARBOXAMIDE] | ≤ 400 nM
21 | CN(C)C(=O)c1ccc(NC(=O)c2snc(-c3ccccc3)c2C2CC2)cc1Cl [I-21, N-(3-CHLORO-4-(DIMETHYLCARBAMOYL) PHENYL)-4-CYCLOPROPYL-3-PHENYLISOTHIAZOLE-5-CARBOXAMIDE] | ≤ 400 nM
22 | O=C(Nc1ccc(C(=O)N2CCOCC2)c(Cl)c1)c1snc(-c2ccccc2)c1C1CC1 [I-22, N-(3-CHLORO-4-(MORPHOLINE-4-CARBONYL) PHENYL)-4-CYCLOPROPYL-3-PHENYLISOTHIAZOLE-5-CARBOXAMIDE] | ≤ 400 nM
23 | CNC(=O)c1ccc(NC(=O)c2snc(-c3ccccc3)c2C2CC2)cc1Cl [I-23, N-(3-CHLORO-4-(METHYLCARBAMOYL) PHENYL)-4-CYCLOPROPYL-3-PHENYLISOTHIAZOLE-5-CARBOXAMIDE] | ≤ 400 nM
